row,SMILES,melting point [°C]
1,CCCc1sc(-c2ccccc2)nc1OC(=O)NC(C)(C)C,97 to 98
2,NCCCCc1c[nH]c(-c2ccc(F)cc2)c1-c1ccncc1,185 to 187
3,Nc1cc(I)cc(CF)c1,48.5 to 50
4,COc1cc2c(c(C)c1C)C(=O)CC2c1c[nH]cn1 (stereo not drawn),258 to 261
5,O=C(O)Cc1cc(C(=O)Cc2ccccc2)ccc1O,198
6,O=C(OCC1c2ccccc2-c2ccc(S(=O)(=O)O)cc21)ON1C(=O)CCC1=O (stereo not drawn),140 to 146
7,O=c1n(CCO)c2ccccc2n1-c1ccc(F)cc1,124 to 126
8,COc1ccc(C2=CCN(Cc3c[nH]c4ncccc34)CC2)cc1,202 to 204
9,O=S(c1c(C(F)(F)F)[nH]c2ccccc12)C(F)(F)F (stereo not drawn),183 to 185
10,CC12CCC3C(CCC4C(=O)CCCC43C)C1CCC2OC1CCCCO1 (stereo not drawn),123 to 126
11,O=C(O)COc1cc2c(c(Cl)c1Cl)C(O)C1(CCCC1)C2 (stereo not drawn),135
12,Cc1oc(-c2ccccc2)nc1COc1ccc(COc2ncccc2C=CC(=O)O)cc1,174 to 175
13,Cc1nc2cc(OCc3ccccc3)c(OCc3ccccc3)cc2nc1C(=O)OCc1ccccc1,137 to 139
14,Cn1ccnc1SCCN1CCC(=C2c3ccn(C)c3CCn3ccnc32)CC1,200
15,O=c1[nH]c(=O)n(C2CC(O)C(CO)O2)cc1C=CBr (stereo not drawn),165 to 166
16,CCCCCCCC1CCC(C(C#N)Cc2ccc(Br)cc2)CC1 (stereo not drawn),60 to 62
17,Cc1oc(-c2ccccc2)nc1COc1cccc(CCCC2OC(=O)NC2=O)c1 (stereo not drawn),134 to 135

row,SMILES,melting point [°C]
1,CCCc1c(OCCCCCC(=O)c2ccc3cc(OC)c(OC)cc3c2)ccc(C(=O)OC)c1O,111 to 112
2,O=c1[nH]c2cc(Cl)ccc2c(O)c1Sc1ccccc1,> 300
3,N#Cc1ccc(C(=C2CCCC2)c2ncc[nH]2)cc1,108 to 110
4,CC(C)(C)OC(=O)[C@H]1CC[C@H](c2ccccc2)N1C(=O)CNC(=O)Nc1cccc(C(=O)O)c1 (racemic),236
5,Cn1cc(C2=C(c3cc[nH]c3)C(=O)NC2=O)c2ccccc21,240 to 241
6,CON=CCNC(=O)c1c(I)cccc1C(=O)Nc1ccc(C(F)(F)C(F)(F)F)cc1C,110
7,COc1cc(C2c3cc4c(cc3C(NC3=CC(=O)N(C)C3=O)C3COC(=O)C23)OCO4)cc(OC)c1O (stereo not drawn),238 to 241
8,CC(Cc1ccc2c(c1)OCO2)C(=O)O (stereo not drawn),121
9,CCOC(=O)c1ncoc1-c1ccc([N+](=O)[O-])cc1Cl,140 to 141
10,O=C(O)C1=CC(CF)(CF)Oc2ccc(C(F)(F)F)cc21,159 to 161
11,CS(=O)(=O)Cc1nnc(-c2ccc3occ(-c4cccc(OC(F)(F)F)c4)c3c2)o1,162 to 163
12,CC(C)c1ccccc1SC1=C(O)CC(CCCCC(=O)O)(c2ccccc2)OC1=O (stereo not drawn),145 to 146
13,CCCCn1sc2nc3ccccc3n2c1=O,153 to 154
14,O=C1NC(=O)C(Cc2ccc(OCCON=Cc3ccccc3)cc2)S1 (stereo not drawn),126 to 129
15,CC(C)Oc1ccccc1NC(=O)Nc1ccc2cnccc2n1,78 to 80
16,Fc1ccc(Cn2c(NC3CCN(CCc4cn5ccsc5n4)CC3)nc3ccccc32)cc1,223
17,CS(=O)(=O)c1ccc(-c2cnn(-c3ccc(F)cc3F)c(=O)c2-c2ccc(F)cc2)cc1,245 to 247

# Now from value to molecule:
row,melting point [°C],SMILES
1,130,Cc1ccc(N)cc1Nc1nccc(-c2cncc(Br)c2)n1
2,128 to 131,CCc1nccc(NC(=O)Cc2ccc(Oc3ccc([N+](=O)[O-])cn3)cc2)c1Cl
3,63 to 65,Cc1cc(C(C)C)cc(C)c1CCl
4,116,NCCNc1ccc([N+](=O)[O-])cc1Cl
5,116 to 117,COc1ccc2cc([C@H](C)C(=O)OCCCN3C(=O)OC[C@H]3C(C)(C)SN=O)ccc2c1
6,205 to 206,CCc1[nH]n(C2CCCC2)c2nc(-c3ccc(OC)c(OCCN4CCOCC4)c3)nc(=O)c1-2
7,109 to 111,O=C(Cc1cccc(Cl)c1F)c1ccc(F)c(Cl)c1
8,78 to 80,CN1C(=O)CC[C@]2(C)c3ccc(SCc4nc5ccccc5s4)cc3CC[C@@H]12
9,120 to 122,CC1Sc2ccccc2N1C(=S)Nc1cccc(Cl)c1 (stereo not drawn)
10,256 to 260,O=C1Nc2ccc(F)cc2C1c1ncnc2nn(C3CCCC3)cc12 (stereo not drawn)
11,98,O=C1C=C2CCCCC2N1c1ccc(OCCN2CCCCC2)c(Cl)c1 (stereo not drawn)
12,117 to 119,[N-]=[N+]=NCC(O)(Cn1cncn1)c1ccc(Cl)cc1Cl (stereo not drawn)
13,> 220,NC(=O)Nc1cc(Oc2ncccc2C(F)(F)F)c(Cl)cc1F
14,271,CCCn1c(=O)c2[nH]c(/C=C/c3ccc(OC)c(C)c3C)nc2n(CCC)c1=O
15,126 to 127,C=C(C)C(=O)Oc1ccc(N(C)S(C)(=O)=O)cc1
16,255 to 257,CCOc1cc2nc[nH]c(=O)c2cc1OCC
17,230,CCCC(=O)Nc1n[nH]c2cc(Cl)ccc12
18,205,Cc1snc(O)c1C#N
19,168 to 171,O=C(O)CCCC(=O)Oc1cccc(-c2cn3c(n2)sc2ccccc23)c1
20,178 to 180,O=C(O)c1ccc(Cn2cc(C3c4ccccc4C=Cc4ccccc43)c(=S)[nH]c2=O)o1

row,melting point [°C],SMILES
1,158 to 160,CC(=O)Nc1cc([N+](=O)[O-])c(F)cc1Cl
2,249 to 251,CCOC(=O)c1cnn(C)c1C(=O)Nc1ccn2nc(-c3cccnc3F)nc2c1
3,215 to 217,NC(N)=NC(=O)Cn1c(Cl)c(Cl)c(Cl)c1Cl
4,117 to 119,Cc1nc(-c2cncc(F)c2)sc1N(C)C(=S)NC1CC1
5,89,COC(=O)[C@H]1OC(O)[C@H](OC(=O)C(C)C)[C@@H](OC(=O)C(C)C)[C@@H]1OC(=O)C(C)C (stereo partly drawn)
6,230 to 232,N#CC(C(=O)c1ccncc1)c1ccc(F)cc1 (stereo not drawn)
7,252,Cn1cc(-c2cc(-c3cnc4[nH]ccc4c3)ccn2)n(-c2ccc(CC#N)cc2)c1=O
8,158 to 159,O=C1CCCc2nc3ccccc3c(NCc3ccc(F)cc3)c21
9,126 to 127,Cc1cc(-c2ccc(S(N)(=O)=O)cc2)n(-c2ccc(F)cc2)c1
10,137 to 140,Cc1ccc(Cc2cnc(NCCCN(C)c3ncc(Br)cn3)[nH]c2=O)cn1
11,241 to 242,NC1CCN(c2c(F)cc3c(=O)c(C(=O)O)cn(C4CC4)c3c2Cl)C1 (stereo not drawn)
12,126,CC(=O)SCC(Cc1ccccc1)C(=O)NN1CCCCCC1 (stereo not drawn)
13,157 to 159,N#Cc1ccc(-c2ccc(C(CCC(=O)O)=NO)cc2)cc1
14,65 to 67,COc1c(O)cc(F)cc1-c1c(Cl)cccc1Cl
15,164 to 171,O=C(O)C=Cc1cc([N+](=O)[O-])c(F)cc1Cl
16,240,CCC1c2nc[nH]c2CCN1C(=O)NC (stereo not drawn)
17,111 to 112,COc1cc(CCCOc2c(CC(=O)O)cccc2OC)n(Cc2ccc(Cl)cc2Cl)n1
18,148 to 149,CCC(CC)c1ccc(C=O)c2nc(Oc3c(C)cc(Cl)cc3Cl)n(C)c12
19,141 to 144,N#CCOC(=O)c1ccc(CNC(=O)CCCCCN2C(=O)C=CC2=O)cc1O
